Results as given in patent publication US11297838B2, “Pesticidal compositions and methods” (CORTEVA AGRISCIENCE LLC, priority 2018, dated 2022).

Assays:
Format in all cases: in vivo
[1] = test system: Cabbage Looper (Trichloplusia ni, TRIPNI); assay: Insecticidal test for cabbage looper (CL), 128-well diet tray assay; settings: Trichoplusia ni, 168 h; 50 μg/cm^2 on artificial diet, second instar larvae, five to seven days, 25° C.; read-out: CL rating, % Control (or Mortality)
Procedure: Insecticidal Test for Cabbage Looper (Trichloplusia ni, TRIPNI) (“CL”)
Bioassays on cabbage looper (CL; Trichloplusia ni: Lepidoptera) are conducted using a 128-well diet tray assay. One to five second instar CL larvae are placed in each well (3 mL) of the diet tray that had been previously filled with 1 mL of artificial diet to which 50 μg/cm^2 of the test compound (dissolved in 50 μL of 90:10 acetone-water mixture) had been applied (to each of eight wells) and then allowed to dry. Trays are covered with a clear self-adhesive cover, vented to allow gas exchange, and held at 25° C., 14:10 light-dark for five to seven days. Percent mortality is recorded for the larvae in each well; activity in the eight wells is then averaged. In the reporting of the results, the “BAW & CL Rating Table” was used.

[2] = test system: Beet Armyworm (Spodoptera exigua, LAPHEG); assay: Insecticidal test for beet armyworm (BAW), 128-well diet tray assay; settings: 168 h, 50 μg/cm^2 on artificial diet, second instar larvae, five to seven days, 25° C., read-out: BAW rating, % Control (or Mortality)
Procedure: Insecticidal Test for Beet Armyworm (Spodoptera exigua, LAPHEG) (“BAW”)
Bioassays on beet armyworm (BAW; Spodoptera exigua: Lepidoptera) are conducted using a 128-well diet tray assay. One to five second instar BAW larvae are placed in each well (3 mL) of the diet tray that had been previously filled with 1 mL of artificial diet to which 50 μg/cm^2 of the test compound (dissolved in 50 μL of 90:10 acetone-water mixture) had been applied (to each of eight wells) and then allowed to dry. Trays are covered with a clear self-adhesive cover, vented to allow gas exchange, and held at 25° C., 14:10 light-dark for five to seven days. Percent mortality is recorded for the larvae in each well; activity in the eight wells is then averaged. In the reporting of the results, the “BAW & CL Rating Table” was used.

[3] = test system: Yellow Fever Mosquito (Aedes aegypti, AEDSAE); settings: about 1 day-old larvae, 4000 ppm master solution diluted, 3 days, room temperature
Procedure: Insecticidal Test for Yellow Fever Mosquito (Aedes aegypti, AEDSAE) (“YFM”)
Master plates containing 400 μg of a molecule dissolved in 100 μL of dimethyl sulfoxide (DMSO) (equivalent to a 4000 ppm solution) are used. A master plate of assembled molecules contains 15 μL per well. To this plate, 135 μL of a 90:10 water/acetone mixture is added to each well. A robot (Biomek® NXP Laboratory Automation Workstation) is programmed to dispense 15 μL aspirations from the master plate into an empty 96-well shallow plate (“daughter” plate). There are 6 reps (“daughter” plates) created per master. The created “daughter” plates are then immediately infested with YFM larvae.
The day before plates are to be treated, mosquito eggs are placed in Millipore water containing liver powder to begin hatching (4 g. into 400 mL). After the “daughter” plates are created using the robot, they are infested with 220 μL of the liver powder/larval mosquito mixture (about 1 day-old larvae). After plates are infested with mosquito larvae, a non-evaporative lid is used to cover the plate to reduce drying. Plates are held at room temperature for 3 days prior to grading. After 3 days, each well is observed and scored based on mortality. In the reporting of the results, the “YFM Rating Table” was used.

[4] = test system: Beet Armyworm (Spodoptera exigua, LAPHEG); assay: Insecticidal test for beet armyworm (BAW), 128-well diet tray assay; settings: 168 h, tested at 5 μg/cm^2, second instar larvae, five to seven days, read-out: BAW rating, % Control (or Mortality)
[5] = test system: Cabbage Looper (Trichloplusia ni, TRIPNI); assay: Insecticidal test for cabbage looper (CL), 128-well diet tray assay; settings: Trichoplusia ni, 168 h; tested at 5 μg/cm^2, second instar larvae, five to seven days; read-out: CL rating, % Control (or Mortality)

Row | Structure (SMILES) | mortality at 50 µg/cm2 [1] [%] | mortality at 50 µg/cm2 [2] [%] | YFM rating, % Control (or Mortality) [3] | mortality at 5 µg/cm2 [4] [%] | mortality at 5 µg/cm2 [5] [%]
1 | CCOc1ccccc1N1C(=O)CS/C1=N\C(=O)OCCc1ccc(-c2ncn(-c3ccc(OC(F)(F)F)cc3)n2)cc1 [A5, 4-(1-(4-(Trifluoromethoxy)phenyl)-1H-1,2,4-triazol-3-yl)phenethyl (Z)-(3-(2-ethoxyphenyl)-4-oxothiazolidin-2-ylidene)carbamate] | 50 to 100 | 0 to 50 | A (80-100) | – | –
2 | CCCCc1ccccc1N1C(=O)CS/C1=N\C(=O)OCCc1ccc(-c2ncn(-c3ccc(OC(F)(F)F)cc3)n2)cc1 [A6, 4-(1-(4-(Trifluoromethoxy)phenyl)-1H-1,2,4-triazol-3-yl)phenethyl (Z)-(3-(2-butylphenyl)-4-oxothiazolidin-2-ylidene)carbamate] | 50 to 100 | 50 to 100 | A (80-100) | – | –
3 | O=C(/N=C1\SCC(=O)N1c1ccccc1CCC1CC1)OCCc1ccc(-c2ncn(-c3ccc(OC(F)(F)F)cc3)n2)cc1 [A7, 4-(1-(4-(Trifluoromethoxy)phenyl)-1H-1,2,4-triazol-3-yl)phenethyl (Z)-(3-(2-(2-cyclopropylethyl)phenyl)-4-oxothiazolidin-2-ylidene)carbamate] | 50 to 100 | 0 to 50 | A (80-100) | – | –
4 | O=C(/N=C1\SCC(=O)N1c1ccccc1CCC(F)(F)F)OCCc1ccc(-c2ncn(-c3ccc(OC(F)(F)F)cc3)n2)cc1 [A8, 4-(1-(4-(Trifluoromethoxy)phenyl)-1H-1,2,4-triazol-3-yl)phenethyl (Z)-(4-oxo-3-(2-(3,3,3-trifluoropropyl)phenyl)thiazolidin-2-ylidene)carbamate] | 50 to 100 | 50 to 100 | A (80-100) | – | –
5 | O=C(/N=C1\SCC(=O)N1c1ccccc1/C=C/C(F)(F)F)OCCc1ccc(-c2ncn(-c3ccc(OC(F)(F)F)cc3)n2)cc1 [A9, 4-(1-(4-(Trifluoromethoxy)phenyl)-1H-1,2,4-triazol-3-yl)phenethyl ((Z)-4-oxo-3-(2-((E)-3,3,3-trifluoroprop-1-en-1-yl)phenyl)thiazolidin-2-ylidene)carbamate] | 50 to 100 | 50 to 100 | A (80-100) | – | –
6 | COc1ccc(N2C(=O)CS/C2=N\C(=O)OCCc2ccc(-c3ncn(-c4ccc(OC(F)(F)F)cc4)n3)cc2)c(C)c1 [A10, 4-(1-(4-(Trifluoromethoxy)phenyl)-1H-1,2,4-triazol-3-yl)phenethyl (Z)-(3-(4-methoxy-2-methylphenyl)-4-oxothiazolidin-2-ylidene)carbamate] | 50 to 100 | 0 | A (80-100) | – | –
7 | Cc1ccc(F)c(N2C(=O)CS/C2=N\C(=O)OCCc2ccc(-c3ncn(-c4ccc(OC(F)(F)F)cc4)n3)cc2)c1 [A11, 4-(1-(4-(Trifluoromethoxy)phenyl)-1H-1,2,4-triazol-3-yl)phenethyl (Z)-(3-(2-fluoro-5-methylphenyl)-4-oxothiazolidin-2-ylidene)carbamate] | 50 to 100 | 0 to 50 | A (80-100) | – | –
8 | Cc1ccc(Cl)c(N2C(=O)CS/C2=N\C(=O)OCCc2ccc(-c3ncn(-c4ccc(OC(F)(F)F)cc4)n3)cc2)c1 [A12, 4-(1-(4-(Trifluoromethoxy)phenyl)-1H-1,2,4-triazol-3-yl)phenethyl (Z)-(3-(2-chloro-5-methylphenyl)-4-oxothiazolidin-2-ylidene)carbamate] | 50 to 100 | 50 to 100 | A (80-100) | – | –
9 | COc1ccc(C)cc1N1C(=O)CS/C1=N\C(=O)OCCc1ccc(-c2ncn(-c3ccc(OC(F)(F)F)cc3)n2)cc1 [A13, 4-(1-(4-(Trifluoromethoxy)phenyl)-1H-1,2,4-triazol-3-yl)phenethyl (Z)-(3-(2-methoxy-5-methylphenyl)-4-oxothiazolidin-2-ylidene)carbamate] | 50 to 100 | 50 to 100 | A (80-100) | – | –
10 | Cc1ccc(C(F)(F)F)c(N2C(=O)CS/C2=N\C(=O)OCCc2ccc(-c3ncn(-c4ccc(OC(F)(F)F)cc4)n3)cc2)c1 [A14, 4-(1-(4-(Trifluoromethoxy)phenyl)-1H-1,2,4-triazol-3-yl)phenethyl (Z)-(3-(5-methyl-2-(trifluoromethyl)phenyl)-4-oxothiazolidin-2-ylidene)carbamate] | 50 to 100 | 50 to 100 | A (80-100) | – | –
11 | CCCc1ccc(C)cc1N1C(=O)CS/C1=N\C(=O)OCCc1ccc(-c2ncn(-c3ccc(OC(F)(F)F)cc3)n2)cc1 [A15, 4-(1-(4-(Trifluoromethoxy)phenyl)-1H-1,2,4-triazol-3-yl)phenethyl (Z)-(3-(5-methyl-2-propylphenyl)-4-oxothiazolidin-2-ylidene)carbamate] | 50 to 100 | 50 to 100 | A (80-100) | – | –
12 | CCOc1ccc(C)cc1N1C(=O)CS/C1=N\C(=O)OCCc1ccc(-c2ncn(-c3ccc(OC(F)(F)F)cc3)n2)cc1 [A16, 4-(1-(4-(Trifluoromethoxy)phenyl)-1H-1,2,4-triazol-3-yl)phenethyl (Z)-(3-(2-ethoxy-5-methylphenyl)-4-oxothiazolidin-2-ylidene)carbamate] | 50 to 100 | 50 to 100 | A (80-100) | – | –
13 | Cc1cc(N2C(=O)CS/C2=N\C(=O)OCCc2ccc(-c3ncn(-c4ccc(OC(F)(F)F)cc4)n3)cc2)c(C(C)C)cc1F [A17, 4-(1-(4-(Trifluoromethoxy)phenyl)-1H-1,2,4-triazol-3-yl)phenethyl (Z)-(3-(4-fluoro-2-isopropyl-5-methylphenyl)-4-oxothiazolidin-2-ylidene)carbamate] | 50 to 100 | 50 to 100 | A (80-100) | – | –
14 | Cc1cc(Cl)c(N2C(=O)CS/C2=N\C(=O)OCCc2ccc(-c3ncn(-c4ccc(OC(F)(F)F)cc4)n3)cc2)cc1C [A18, 4-(1-(4-(Trifluoromethoxy)phenyl)-1H-1,2,4-triazol-3-yl)phenethyl (Z)-(3-(2-chloro-4,5-dimethylphenyl)-4-oxothiazolidin-2-ylidene)carbamate] | 0 | 0 | D (No activity noticed in this bioassay) | – | –
15 | Cc1ccc(C(C)C)c(N2C(=O)CS/C2=N\C(=O)OC(C)Cc2ccc(-c3ncn(-c4ccc(OC(F)(F)F)cc4)n3)cc2)c1 (centres unmarked) [A19, 1-(4-(1-(4-(Trifluoromethoxy)phenyl)-1H-1,2,4-triazol-3-yl)phenyl)propan-2-yl (Z)-(3-(2-isopropyl-5-methylphenyl)-4-oxothiazolidin-2-ylidene)carbamate] | 50 to 100 | 50 to 100 | B (More than 0-Less than 80) | – | –
16 | Cc1ccc(C(C)C)c(N2C(=O)CS/C2=N\C(=O)OCC(F)c2ccc(-c3ncn(-c4ccc(OC(F)(F)C(F)(F)F)cc4)n3)cc2)c1 (centres unmarked) [A26, 2-Fluoro-2-(4-(1-(4-(perfluoroethoxy)phenyl)-1H-1,2,4-triazol-3-yl)phenyl)ethyl (Z)-(3-(2-isopropyl-5-methylphenyl)-4-oxothiazolidin-2-ylidene)carbamate] | – | – | – | 50 to 100 | 0 to 50
